Experimental data as given in patent US20060183794A1, “Drug composition containing nf-kb inhibitor” (priority 2002, published 2006).

Legend:
[1] = tested on: ATL cells of ATL patients; experiment: MTT assay, ATL cells from peripheral blood of ATL patients; type: cell-based, human; settings: three cases; 10 μg/ml, 24 hours
Procedure: Mononuclear cells were isolated from peripheral blood cells of ATL patients and ATL cells were isolated. DHM2EQ was added to the isolated ATL cells of three cases at a final concentration of 10 μg/ml and the cells were incubated for 24 hours. The proliferation-inhibitory effect was examined by the MTT assay. Using the cells to which solvent DMSO had been added in equal volume as controls, the proliferation-inhibitory effect was evaluated by the ratio of the MMT values of DHM2EQ-treated cells to those of DHM2EQ-untreated cells, i.e., (MTT values of DHM2EQ-treated cells/MTT values of DHM2EQ-untreated cells).

[2] = tested on: Hodgkin's lymphoma cell lines KMH-2 and L-540; experiment: MTT assay, proliferation of Hodgkin's lymphoma cell lines; type: cell-based
Procedure: Cells from the ATL cell lines (MT-1 and TL-Om1) and a control cell line (K562) were plated in 96-well plates at 1×10^5 cells/well and DHM2EQ was added at the desired final concentrations (2, 5, and 10 μg/ml). Cells to which the solvent DMSO had been added in equal volume (0 μg/ml) were used as […] incubation for 72 hours, cell viability was judged by the MTT assay. Relative MTT values were obtained as the ratio of the MMT values of DHM2EQ-treated cells to those of DHM2EQ-untreated cells, i.e., (MTT values of DHM2EQ-treated cells/MTT values of DHM2EQ-untreated cells)×100(%).
DHM2EQ was added to the ATL cell lines (MT-1 and TL-Om1) and a control cell line (K562) at a final concentration of 10 μg/ml and the cells were incubated for 12, 24, 48, and 72 hours. The proliferation-inhibitory effect was examined by the MTT assay. Cells to which the solvent DMSO had been added in equal volume were used as controls. Relative MTT values were obtained in the same manner as the aforementioned (1).
Time-course analysis and concentration dependence analysis of the inhibitory effect of DHM2EQ on proliferation of Hodgkin's lymphoma cells were performed in the same manner as in Example 2. As Hodgkin's lymphoma cells, the Hodgkin's lymphoma cell lines KMH-2 and L-540 were used.

`O=C(NC1=CC(=O)C2OC2C1O)c1ccccc1O` (stereo not drawn) [DHMEQ, 5,6-epoxy-4-hydroxy-3-salicyloylamino-2-cyclohexenone] was tested, and the “proliferation of ATL cells obtained from patients (MTT)” value [1] was “exhibits an inhibitory effect”, the “cell proliferation, concentration dependence” value [2] was “inhibited in proportion to the DHM2EQ concentrations added” and the “cell proliferation, time course” value [2] was “inhibited in proportion to the DHM2EQ treatment time”.
